Assay results taken from the NIST ThermoML archive (doi:10.1016/j.tca.2009.10.017).
Where “and” joins values, the source holds several entries; their conditions need not be identical. Equal values may be shown once.

Clc1c(Cl)c(Cl)c(Cl)c(Cl)c1Cl [hexachlorobenzene]
vapor or sublimation pressure, Crystal
Details | isothermal thermogravimetry | non-isothermal thermogravimetry
359.7 K | 0.002 kPa | –
360.2 K | 0.003 kPa | –
361.6 K | 0.003 kPa | –
362.5 K | 0.003 kPa | –
363.6 K | 0.004 kPa | –
364.4 K | 0.003 kPa | –
364.5 K | 0.004 kPa | –
365.4 K | 0.004 kPa | –
365.5 K | 0.004 kPa | –
367.4 K | 0.005 kPa | –
368 K | 0.005 kPa | –
369.5 K | 0.005 kPa | –
370.3 K | 0.005 kPa | –
371 K | 0.006 kPa | –
371.5 K | 0.006 kPa and 0.005 kPa | –
374.1 K | 0.007 kPa | –
377.1 K | 0.008 kPa | –
378.1 K | 0.008 kPa | –
378.2 K | 0.008 kPa | –
381.4 K | 0.012 kPa and 0.011 kPa | –
382.3 K | 0.012 kPa | –
382.4 K | 0.011 kPa | –
383.1 K | 0.012 kPa | –
384.4 K | 0.014 kPa | –
385.8 K | 0.015 kPa | –
386.2 K | 0.015 kPa | –
386.6 K | 0.013 kPa | –
388.5 K | 0.016 kPa | –
392.7 K | 0.021 kPa | –
393.3 K | 0.024 kPa | –
396.3 K | 0.026 kPa | –
396.7 K | 0.026 kPa | –
397.5 K | – | 0.038 kPa
399.6 K | 0.031 kPa | –
400.4 K | – | 0.048 kPa
400.6 K | 0.038 kPa | –
400.8 K | – | 0.041 kPa
401.2 K | – | 0.048 kPa
402 K | – | 0.047 kPa
402.8 K | – | 0.057 kPa
403.2 K | 0.044 kPa | –
403.6 K | – | 0.05 kPa
404.1 K | – | 0.061 kPa
404.4 K | 0.043 kPa | –
404.5 K | – | 0.051 kPa
404.9 K | – | 0.058 kPa
405.3 K | – | 0.053 kPa
405.8 K | – | 0.063 kPa
406.1 K | – | 0.052 kPa
406.5 K | – | 0.06 kPa
407 K | – | 0.064 kPa
407.4 K | – | 0.061 kPa
407.8 K | – | 0.064 kPa
408.2 K | – | 0.07 kPa
408.3 K | 0.057 kPa | –
408.6 K | – | 0.066 kPa
409 K | – | 0.078 kPa
409.4 K | – | 0.071 kPa
409.8 K | – | 0.079 kPa
410.2 K | – | 0.076 kPa
410.6 K | – | 0.073 kPa
411 K | – | 0.074 kPa
411.4 K | – | 0.089 kPa
411.9 K | – | 0.069 kPa
412.3 K | 0.066 kPa | 0.078 kPa
412.7 K | – | 0.084 kPa
413.2 K | – | 0.083 kPa
413.6 K | – | 0.085 kPa
414 K | – | 0.088 kPa
414.4 K | – | 0.093 kPa
414.9 K | – | 0.093 kPa
415.3 K | – | 0.089 kPa
415.7 K | – | 0.101 kPa
416.1 K | – | 0.094 kPa
416.5 K | – | 0.101 kPa
417 K | – | 0.101 kPa
417.4 K | – | 0.11 kPa
417.8 K | – | 0.118 kPa
418.2 K | – | 0.112 kPa
418.6 K | – | 0.113 kPa
419.1 K | – | 0.129 kPa
419.5 K | – | 0.131 kPa
419.9 K | – | 0.118 kPa
420.3 K | – | 0.134 kPa
420.7 K | – | 0.134 kPa
421.1 K | – | 0.128 kPa
421.5 K | – | 0.131 kPa
421.9 K | – | 0.144 kPa
422.3 K | – | 0.144 kPa
422.8 K | – | 0.143 kPa
423.2 K | – | 0.159 kPa
423.6 K | – | 0.146 kPa
424 K | – | 0.149 kPa
424.4 K | – | 0.152 kPa
424.8 K | – | 0.169 kPa
425.7 K | – | 0.173 kPa

Cl[C@H]1[C@H](Cl)[C@@H](Cl)[C@@H](Cl)[C@H](Cl)[C@H]1Cl [γ-1,2,3,4,5,6-hexachlorocyclohexane]
vapor or sublimation pressure
Details | Crystal | Liquid
347.1 K, isothermal thermogravimetry | 0.0017 kPa | –
349.8 K, isothermal thermogravimetry | 0.0019 kPa | –
349.9 K, isothermal thermogravimetry | 0.002 kPa | –
351.9 K, isothermal thermogravimetry | 0.0025 kPa | –
352 K, isothermal thermogravimetry | 0.0027 kPa | –
354.4 K, isothermal thermogravimetry | 0.0034 kPa | –
355 K, isothermal thermogravimetry | 0.0031 kPa | –
356.2 K, isothermal thermogravimetry | 0.0039 kPa | –
356.4 K, isothermal thermogravimetry | 0.0042 kPa | –
357.8 K, isothermal thermogravimetry | 0.004 kPa | –
359.3 K, isothermal thermogravimetry | 0.005 kPa | –
361.5 K, isothermal thermogravimetry | 0.0052 kPa | –
363.2 K, isothermal thermogravimetry | 0.006 kPa | –
364 K, isothermal thermogravimetry | 0.0058 kPa | –
364.9 K, isothermal thermogravimetry | 0.0082 kPa | –
367.2 K, isothermal thermogravimetry | 0.0075 kPa | –
368.1 K, isothermal thermogravimetry | 0.0104 kPa | –
371.1 K, isothermal thermogravimetry | 0.0122 kPa | –
372.9 K, isothermal thermogravimetry | 0.0122 kPa | –
374.3 K, isothermal thermogravimetry | 0.0169 kPa | –
376.2 K, isothermal thermogravimetry | 0.017 kPa | –
377.4 K, isothermal thermogravimetry | 0.0225 kPa | –
377.5 K, non-isothermal thermogravimetry | 0.024 kPa | 0.024 kPa
378.3 K, non-isothermal thermogravimetry | 0.026 kPa | 0.026 kPa
379.1 K, non-isothermal thermogravimetry | 0.027 kPa | 0.027 kPa
379.3 K, isothermal thermogravimetry | 0.0228 kPa | –
379.9 K, non-isothermal thermogravimetry | 0.028 kPa | 0.028 kPa
380.7 K, isothermal thermogravimetry | 0.0294 kPa | –
380.7 K, non-isothermal thermogravimetry | 0.03 kPa | 0.03 kPa
381.5 K, non-isothermal thermogravimetry | 0.032 kPa | 0.032 kPa
381.8 K, isothermal thermogravimetry | 0.0277 kPa | –
382.4 K, non-isothermal thermogravimetry | 0.034 kPa | 0.034 kPa
383.2 K, non-isothermal thermogravimetry | 0.037 kPa | 0.037 kPa
384 K, isothermal thermogravimetry | 0.0365 kPa | –
384 K, non-isothermal thermogravimetry | 0.038 kPa | 0.038 kPa
384.8 K, non-isothermal thermogravimetry | 0.041 kPa | 0.041 kPa
386.4 K, non-isothermal thermogravimetry | – | 0.044 kPa
387 K, non-isothermal thermogravimetry | – | 0.049 kPa
387.4 K, isothermal thermogravimetry | – | 0.045 kPa
387.6 K, non-isothermal thermogravimetry | – | 0.044 kPa
387.9 K, non-isothermal thermogravimetry | – | 0.046 kPa
388.2 K, non-isothermal thermogravimetry | – | 0.044 kPa
388.6 K, non-isothermal thermogravimetry | – | 0.043 kPa
389.2 K, isothermal thermogravimetry | – | 0.049 kPa
389.9 K, isothermal thermogravimetry | – | 0.055 kPa
390.5 K, isothermal thermogravimetry | – | 0.053 kPa
390.8 K, non-isothermal thermogravimetry | – | 0.051 kPa
392.1 K, isothermal thermogravimetry | – | 0.06 kPa
392.1 K, non-isothermal thermogravimetry | – | 0.065 kPa
393.2 K, non-isothermal thermogravimetry | – | 0.06 kPa
393.5 K, isothermal thermogravimetry | – | 0.07 kPa
393.6 K, isothermal thermogravimetry | – | 0.065 kPa
394.1 K, non-isothermal thermogravimetry | – | 0.067 kPa
395 K, non-isothermal thermogravimetry | – | 0.07 kPa
395.9 K, non-isothermal thermogravimetry | – | 0.079 kPa
396.6 K, isothermal thermogravimetry | – | 0.08 kPa
396.7 K, non-isothermal thermogravimetry | – | 0.085 kPa
397.6 K, non-isothermal thermogravimetry | – | 0.074 kPa
398.5 K, non-isothermal thermogravimetry | – | 0.074 kPa
398.7 K, isothermal thermogravimetry | – | 0.088 kPa
398.9 K, isothermal thermogravimetry | – | 0.086 kPa
399 K, isothermal thermogravimetry | – | 0.093 kPa
399.9 K, isothermal thermogravimetry | – | 0.093 kPa
400.2 K, non-isothermal thermogravimetry | – | 0.088 kPa
400.3 K, isothermal thermogravimetry | – | 0.095 kPa
401 K, non-isothermal thermogravimetry | – | 0.1 kPa
401.7 K, isothermal thermogravimetry | – | 0.103 kPa
401.9 K, non-isothermal thermogravimetry | – | 0.109 kPa
402 K, non-isothermal thermogravimetry | – | 0.095 kPa
402.8 K, non-isothermal thermogravimetry | – | 0.106 kPa
403.6 K, non-isothermal thermogravimetry | – | 0.104 kPa
403.7 K, isothermal thermogravimetry | – | 0.114 kPa and 0.111 kPa
404.4 K, non-isothermal thermogravimetry | – | 0.125 kPa
405.3 K, non-isothermal thermogravimetry | – | 0.131 kPa
406.1 K, non-isothermal thermogravimetry | – | 0.139 kPa
406.5 K, isothermal thermogravimetry | – | 0.122 kPa
406.9 K, isothermal thermogravimetry | – | 0.133 kPa
406.9 K, non-isothermal thermogravimetry | – | 0.119 kPa
407.7 K, non-isothermal thermogravimetry | – | 0.153 kPa
408.5 K, non-isothermal thermogravimetry | – | 0.142 kPa
409.3 K, non-isothermal thermogravimetry | – | 0.158 kPa
410.2 K, non-isothermal thermogravimetry | – | 0.148 kPa
411 K, non-isothermal thermogravimetry | – | 0.174 kPa
411.8 K, non-isothermal thermogravimetry | – | 0.168 kPa
412.6 K, non-isothermal thermogravimetry | – | 0.177 kPa
413.4 K, non-isothermal thermogravimetry | – | 0.174 kPa
414.3 K, non-isothermal thermogravimetry | – | 0.192 kPa
415.1 K, non-isothermal thermogravimetry | – | 0.202 kPa
415.9 K, non-isothermal thermogravimetry | – | 0.195 kPa
416.8 K, non-isothermal thermogravimetry | – | 0.211 kPa
417.6 K, non-isothermal thermogravimetry | – | 0.229 kPa
418.4 K, non-isothermal thermogravimetry | – | 0.248 kPa
419.3 K, non-isothermal thermogravimetry | – | 0.261 kPa
420.1 K, non-isothermal thermogravimetry | – | 0.257 kPa
421 K, non-isothermal thermogravimetry | – | 0.254 kPa
421.8 K, non-isothermal thermogravimetry | – | 0.267 kPa
422.7 K, non-isothermal thermogravimetry | – | 0.286 kPa
423.6 K, non-isothermal thermogravimetry | – | 0.306 kPa
424.5 K, non-isothermal thermogravimetry | – | 0.301 kPa
425.4 K, non-isothermal thermogravimetry | – | 0.347 kPa
426.4 K, non-isothermal thermogravimetry | – | 0.366 kPa
426.8 K, non-isothermal thermogravimetry | – | 0.371 kPa
427.5 K, non-isothermal thermogravimetry | – | 0.405 kPa
428.6 K, non-isothermal thermogravimetry | – | 0.367 kPa
428.7 K, non-isothermal thermogravimetry | – | 0.416 kPa
